Measured values as given in US10889554B2, “Excimer forming compounds” (THE GOVERNING COUNCIL OF THE UNIVERSITY OF TORONTO, priority 2013, dated 2021).

What was measured:
[1] = tested on: proximally phosphorylated proteins (α-casein, β-casein and D-α-casein); assay: In-solution detection of proteins; type: binding, Bos taurus; details: pH 7.5, 50 mM HEPES
From the text: Non-phosphorylated (BSA and lysozyme) and distally phosphorylated negative control proteins (ovalbumin) were used in detection methods for in-solution, on gel and on blot applications. Dephosphorylated α-casein (D-α-casein), β-casein and α-casein served as proximally phosphorylated positive controls (see Table 2). The phosphosites presented in Table 2 were obtained from the PhosphoSitePlus database or a UniProt database.
Various conditions for the detection of proximally phosphorylated proteins and proteins in aqueous solution are shown in Table 3. Proteins were dissolved in a buffer at various concentrations (normally 100 μM to 40 nM), and combined with 40 μM of compound 1 in complex with Zn^2+ (triflate salt) dissolved in the same buffer on a 384 well flat bottom black plate. The mixture was incubated for 20 minutes and fluorescence emission intensity at 476 nm (10-20 nm bandwidth) was measured using a Tecan M1000 microplate reader, upon excitation at 350 nm (5 nm bandwidth) at 400 Hz. The different conditions tested were assessed based on the ratios of signal intensity of positive to negative control analytes and signal intensity in general. Among the parameters assessed in this study and using these specific control proteins, the following conditions were selected for proteins studies: pH 5.5 50 mM NaOAc, 50 mM NaCl, 5% DMSO (see FIG. 27). […] Depending on the number of proximally di-phosphorylated sites, lower detection limits could be achieved by using lower concentration of a sensor.
Using same methods as described in Example 1.1c, Zn^2+ (triflate salt) complexes of compounds 1 (top left), compound 9 (top right), compound 15 (middle left), and compound 14 (middle right) were tested in pH 7.5, 50 mM HEPES, 75 mM NaCl, 20% DMSO (see FIG. 28).
Using same methods as described in Example 14, 40 and 20 μM of Zn^2+ (triflate salt) complexes of compound 1 (top) and compound 12 (bottom) (FIG. 29), were tested in pH 7.5, 50 mM HEPES, 5% DMSO.
Using same methods as described above, 60, 40, 20 and 10 μM of Zn^2+ (triflate salt) complexed with compound 12 (FIG. 30), were titrated with 80-0.04 μM of proteins in pH 7.5, 50 mM HEPES, 5% DMSO.

[2] = tested on: proximally phosphorylated peptides; assay: Detection of proximally phosphorylated peptides in aqueous solution (384 well plate, emission 476 nm); type: binding
Experimental: In one example 40 μM of compound 1 pre-metallated with zinc(II) triflate (referred to as “Zn^2+ pre-metallation” in FIG. 13; procedure described in example) was titrated with 80-0.04 μM of pY and pYpY peptides in 50 mM HEPES pH 7.5, 5% DMSO. In another example, 40 μM of compound 1 was dissolved in 50 mM HEPES pH 7.5, 5% DMSO, which contained 40 μM of zinc(II) triflate (referred to as “in situ Zn^2+ metallation” in FIG. 13) and was titrated with 80-0.04 μM of pY and pYpY peptides. Fluorescence measurements were performed as described in Example 2.
Various conditions for the detection of proximally phosphorylated peptides and proteins in aqueous solution are shown in Table 1. For the screens, analytes (peptides) were dissolved in a specific buffer at various concentrations (normally 100 μM to 40 nM), and combined with 40 μM of compound 1 in complex with Zn^2+ (triflate salt) dissolved in the same buffer on a 384 well flat bottom black plate. The mixture was incubated for 20 minutes and fluorescence emission intensity at 476 nm (10-20 nm bandwidth) was measured using a Tecan M1000 microplate reader, upon excitation at 350 nm (5 nm bandwidth) at 400 Hz. The different conditions tested were assessed based on the ratios of signal intensity of positive to negative control analytes and signal intensity in general.
Peptides containing two phosphotyrosine residues, spaced by 2-5 alanine residues, were titrated into 40 μM solution of compound 1 in complex with Zn^2+ (triflate salt) (pH 7.5 50 mM HEPES, 10% propylene, 25 mM NaCl) from 80 μM to 40 nM (FIG. 16). Y-axis is Δ Fluorescence Intensity as defined by the formula in example 2.
Using the same methods as described in Example 6, Zn^2+ (triflate salt) complexes of compounds 1, compound 9, compound 15, compound 14 were tested in pH 7.5, 50 mM HEPES, 25 mM NaCl, 10% propylene glycol.
Using the same methods as described in Example 6, Zn^2+ (triflate salt) complexes of compound 1 and compound 12 were tested in pH 7.5, 50 mM HEPES, 5% DMSO.

MRC-9 cells = assay: Fixed cell imaging; type: cell-based, human
Experimental: MRC-9 cells were plated on an 8-chamber tissue culture treated glass slide (BD Falcon; 40,000 cells/chamber) and cultured for two days at 37° C., 5% CO2. Media was removed and cells were incubated with 200 μL of 3.4% formaldehyde solution in 1×PBS for 10 min. Cells were washed 3×3 min with PBS and stored in PBS at 4° C. until staining. Cells were washed 3× with 50 mM HEPES and incubated in 40 μM solution of compound 1 in complex with Zn^2+ (triflate salt) dissolved in 50 mM HEPES, 75 mM NaCl, 10% DMSO for 1 h. Cells were rinsed 2× with 50 mM HEPES and mounted with a mounting solution and a cover slip.

[3] = Titration of compound with GaCl3 at different pH (fluorescence at 376 nm); type: binding; details: 40 μM compound
Experimental: GaCl3 was titrated into 40 μM (constant) of compound 2 from 500 to 0.25 μM at pH 4.5 (50 mM NaOAc) and 7.5 (HEPES). Fluorescence intensity was measured at 376 and 476 nm at 350 nm excitation. […] At pH 4.5 saturation is observed at 10 μM of GaCl3.
40 μM of compound 3 was titrated with GaCl3 (250-0.12 μM) and the change in emission at 376 nm was recorded upon excitation at 350 nm as shown in FIG. 48.

β-casein = target: T1, β-casein (Bos taurus, UniProt P02666); assay: On-gel detection of proximally phosphorylated protein using GaCl3 complexes; type: binding
T1 construct: purchased Sigma Aldrich C6905-250MG
T1 sequence (P02666 16-224): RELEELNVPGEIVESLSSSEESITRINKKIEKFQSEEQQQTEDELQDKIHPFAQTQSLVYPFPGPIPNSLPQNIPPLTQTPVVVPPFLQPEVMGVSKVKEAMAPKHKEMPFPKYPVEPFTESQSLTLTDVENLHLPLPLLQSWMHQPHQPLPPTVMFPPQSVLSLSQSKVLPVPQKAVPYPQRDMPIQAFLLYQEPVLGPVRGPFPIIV
Experimental: (§1) Compound 8 was dissolved in 50 mM NaOAc buffer, pH 4.5, 50 mM NaCl, 10% DMSO and combined with 80, 160 or and 240 μM GaCl3 solutions. Each gel contained 4 lanes with equal amounts of BSA, ovalbumin (Ova), β-casein (β-cas) and lysozyme (Lyso) in each lane (left to right: 1, 0.5, 0.25 and 0.125 μg per protein per lane) (see FIG. 37). Gels were stained for 1 h with the sensor solution. Gels were first de-stained with 50 mM NaOAc buffer pH 4.5 for 2 h and then with 50 mM NaOAc buffer pH 4.0 20% acetonitrile for 40 h.
(§2) Compound 8 was dissolved in 100 mM NaOAc buffer, pH 4.5, 150 mM NaCl, 20% propylene glycol and combined with 10 and 15 μM GaCl3 solutions. Each gel contained 4 lanes with equal amounts of BSA, ovalbumin (Ova), β-casein (β-cas) and lysozyme (Lyso) in each lane (FIG. 40) left to right: 1, 0.5, 0.25 and 0.125 μg per protein per lane). Gels were stained for 1.5 h with the sensor solution. Destaining was performed for variable time (specified at the top) with 50 mM NaOAc, pH 4.0, 20% acetonitrile. Gels were rinsed with MiliQ water for 5 min prior to imaging. Images were acquired using ChemiDoc MP, using a 530 nm emission filter and UV trans excitation.
as §1, with “Compound 2” for “Compound 8”, “lane) (FIG. 42).” for “lane) (see FIG. 37).”, “h. […] However with the increased destaining time the intensity of β-casein band relative to other proteins was increasing, resulting in a 6.7-fold higher intensity over the distally phosphorylated protein ovalbumin. Lane containing 1 μg of each protein was analyzed (FIG. 43).” for “h.”
as §2, with “2” for “8”, “45)” for “40)”, “acetonitrile (see FIGS. 45 and 46).” for “acetonitrile.”

fixed cells = assay: Fixed cell imaging: monitoring decrease in proximal phosphorylation; type: cell-based; details: 22 nM, pre-treatment prior to cell fixation
Experimental: (3 h prior to fixation, media was removed and 22 nM of Staurosporine (BioShop, cat. STA001) solution in fresh media was added and incubated at 37° C., 5% CO2 for 3 h).

[4] = tested on: MRC-9 and A549 cell lines; assay: Fixed cell imaging: monitoring increase in proximal phosphorylation; type: cell-based, human; details: pre-treatment before fixation
[5] = 100 mM NaOAc pH 4.5, 150 mM NaCl, 20% propylene glycol, destain 50 mM NaOAc, pH 4.0, 20% acetonitrile

With `c1cc2ccc3ccc(CN4CCNCCNCCNCC4)c4ccc(c1)c2c34` [compound 1, 1-(Pyren-1-methyl)-1,4,7,10-tetraazacyclododecane] the “efficiency at detecting the proximally phosphorylated proteins” value ([1]; Zn^2+ (triflate salt) complexes, 75 mM NaCl, 20% DMSO) was “comparable efficiency”, the “signal with mono-phosphorylated or non-phosphorylated peptides” value ([2]; Zn^2+ triflate complex, 40 μM) was “did not produce a significant signal” and the “intracellular fluorescence, metallated vs non-metallated” value (MRC-9 cells) was “only compound 1-Zn^2+ complex, is capable of inducing intracellular fluorescence”.
In the case of `O=C(O)CN(CC(=O)O)c1ccccc1OCCOc1cc(NC(=O)CCCc2ccc3ccc4cccc5ccc2c3c45)ccc1N(CC(=O)O)CC(=O)O` [compound 2, 2,2′-((2-(2-(2-(bis(carboxymethyl)amino)-5-(4-(pyren-1-yl)butanamido)phenoxy)ethoxy)phenyl)azanediyl)diacetic acid], the “GaCl3 concentration at which saturation is observed” value ([3]; pH 4.5 (50 mM NaOAc)) is reported as 10 µM, the “saturation at higher concentration of GaCl3” value ([3]; pH 7.5 (HEPES)) is reported as “saturation was not observed” and the “selectivity for β-casein after 2 h destaining” value (β-casein; 80 μM compound, 1:1 GaCl3, stained 1 h) is reported as “did not result in the selective staining”. For the same molecule, the “β-casein over distally phosphorylated ovalbumin” value (β-casein; 80 μM compound, 1:1 GaCl3, stained 1 h, 40 h destaining, 1 μg per protein) was 6.7 fold, the “selectivity for β-casein with more than 1:1 equivalent of compound:GaCl3” value (β-casein; 50 mM NaOAc pH 4.5, 50 mM NaCl, 10% DMSO, 160 or 240 μM GaCl3) was “did not result in good selectivity” and the “selective staining for β-casein, no destaining” value (β-casein; 100 mM NaOAc pH 4.5, 150 mM NaCl, 20% propylene glycol, 1:1 and 1:1.5 compound:GaCl3, stained 1.5 h) was “did not result in selective staining”. For the same molecule, the “staining of β-casein band following 16 h destain” value (β-casein; [5]) was “most prominently stained band” and the “β-casein signal over distally phosphorylated ovalbumin following 16 h destain” value (β-casein; [5]) was 10 fold.
With `O=C(O)CN1CCN(CCCCc2ccc3ccc4cccc5ccc2c3c45)CCN(CC(=O)O)CCN(CC(=O)O)CC1` [compound 3, 2,2′,2″-(10-(4-(pyren-1-yl)butyl)-1,4,7,10-tetraazacyclododecane-1,4,7-triyl)triacetic acid] the “concentrations at which Ga^3+-compound complex formation was observed” value ([3]; pH 5.5 and 4.5, 50 mM NaOAc) was “single-digit”.
In the case of `c1cc2ccc3ccc(CN4CCCNCCNCCCNCC4)c4ccc(c1)c2c34` [compound 12, 1-(pyren-1-ylmethyl)-1,4,8,11-tetraazacyclotetradecane], the “detection limit on lowering the concentration of the sensor” value ([1]; 60, 40, 20 and 10 μM Zn^2+ complex, 5% DMSO) is reported as “improved” and the “detecting proximally phosphorylated peptides” value ([2]; Zn^2+ (triflate salt) complex, pH 7.5, 50 mM HEPES, 5% DMSO) is reported as “potent”.
With `CN[C@@H]1C[C@H]2O[C@@](C)([C@@H]1OC)n1c3ccccc3c3c4c(c5c6ccccc6n2c5c31)C(=O)NC4` [staurosporine] the “fluorescence intensity of compound 1-Zn^2+ complex compared to untreated control” value (fixed cells) was “time-dependent decrease”.
With IL-6: a JAK2 pathway-inducing agent the “fluorescent signal from compound 1-Zn^2+ in pre-treated cells” value [4] was “significantly increased”.
